system: maximal electroshock-induced seizures (MES); assay: Maximum electroshock seizure test (MES), oral administration to mice; format: in vivo; settings: 30 minutes before the test, dose protecting 50% of animals
Source text: The compounds of the present invention may be tested for in vivo anticonvulsant activity after i.v., p.o. or i.p. injection using a number of anticonvulsant tests in mice, including the maximum electroshock seizure test (MES). Maximum electroshock seizures were induced in male NSA mice weighing between 15-20 g and male Sprague-Dawley rats weighing between 200-225 g by application of current (50 mA, 60 pulses/sec, 0.8 msec pulse width, 1 sec duration, D.C., mice; 99 mA, 125 pulses/sec, 0.8 msec pulse width, 2 sec duration, D.C., rats) using a Ugo Basile ECT device (Model 7801). Mice were restrained by gripping the loose skin on their dorsal surface and saline-coated corneal electrodes were held lightly against the two corneae. Rats were allowed free movement on the bench top and ear-clip electrodes were used. […] A tonic seizure was defined as a hindlimb extension in excess of 90 degrees from the plane of the body. Results were treated in a quantal manner.
The ability of 3-[4-(2,4-difluorophenoxy)phenyl]-1H-pyrazole-1-carboxamide to block maximal electroshock-induced seizures (MES) was determined as described earlier.
3-[4-(2,4-Difluorophenoxy)phenyl]-1H-pyrazole-1-carboxamide was administered p.o. to mice 30 minutes before the test procedure.
The following compounds in Table 1 were tested in MES as described for 3-[4-(2,4-difluorophenoxy)phenyl]-1H-pyrazole-1-carboxamide: […]

| Compound | MES p.o. ED50 |
| --- | --- |
| Cc1nc(-c2ccc(Oc3ccc(F)cc3F)cc2)c[nH]1 [4-[4-(2,4-Difluorophenoxy)phenyl]-2-methyl]-1H-imidazole] | 7.5 mg/kg |
| CN1CCN(C(=O)Cn2nccc2-c2ccc(Oc3ccc(F)cc3)cc2)CC1 [2-{5-[4-(4-Fluorophenoxy)phenyl]-pyrazol-1-yl}-1-(4-methyl)piperazine-1-yl-ethanone] | 10 mg/kg |

same assay, conditions: Mus musculus, po, 30 minutes before the test, dose protecting 50% of animals

| Compound | ED50 |
| --- | --- |
| Fc1ccc(Oc2ccc(-c3cc[nH]n3)cc2)cc1 [3-[4-(4-Fluorophenoxy)phenyl]-1H-pyrazole] | 8 mg/kg |
| Fc1ccc(Oc2ccc(-c3c[nH]cn3)cc2F)cc1 [4-[4-(4-Fluorophenoxy)-3-fluorophenyl]-1H-imidazole] | 3.2 mg/kg |
| Fc1ccc(Oc2ccc(-c3c[nH]cn3)cc2)cc1 [4-[4-(4-Fluorophenoxy)phenyl]-1H-imidazole] | 4.2 mg/kg |
| COC(=O)c1ccc(-c2ccc(Oc3ccc(F)cc3)cc2)[nH]1 [Methyl 5-[4-(4-Fluorophenoxy)phenyl]pyrrole-2-carboxylate] | 6 mg/kg |
| NC(=O)c1ccc(-c2ccc(Oc3ccc(F)cc3)cc2)[nH]1 [5-[4-(4-Fluorophenoxy)phenyl]-pyrrole-2-carboxamide] | 10 mg/kg |
| NC(=O)n1ccc(-c2ccc(Oc3ccc(F)cc3)c(F)c2)n1 [3-[3-fluoro-4-(4-fluorophenoxy)phenyl]-1H-pyrazole-1-carboxamide] | 4.5 mg/kg |
| CC(=O)N(C)n1nccc1-c1ccc(Oc2ccc(F)cc2)cc1 [2-(N-methylacetamido)-3-[4-(4-fluorophenoxy)phenyl]-2H-pyrazole] | 2.9 mg/kg |
| CS(=O)(=O)NCCn1nccc1-c1ccc(Oc2ccc(F)cc2)cc1 [1-[2-(Methanesulfonylamino)ethyl]-5-[4-(4-fluorophenoxy)phenyl]-1H-pyrazole] | 7.5 mg/kg |
| CN(C)C(=O)n1ccc(-c2ccc(Oc3ccc(F)cc3)cc2)n1 [3-[4-(4-Fluorophenoxy)phenyl]-1H-pyrazole-1-carboxylic Acid Dimethylamide] | 8.6 mg/kg |

— patent US6737418B2, “Aryl substituted pyrazoles, imidazoles, oxazoles, thiazoles and pyrroles, and the use thereof” (Euro-Celtique S.A., priority 1999, dated 2004)
